Measured values from US12049469B2, “Compound and structural body for detecting hydrogen sulfide” (CANON KABUSHIKI KAISHA, priority 2020, dated 2024).

Legend:
[1] = Fluorescence intensity change of compound solution on addition of sodium sulfide (hydrogen sulfide donor) in phosphate-buffered saline; conditions: for ΔF0 (0 mM sodium sulfide), amount of change in fluorescence intensity / ΔF (0.2 mM sodium sulfide), amount of change in fluorescence intensity F2−F1: compound 5 μM in 1× phosphate-buffered saline pH 7.4; for ΔF0 (0 mM sodium sulfide), amount of change in fluorescence intensity: 10 minutes; for ΔF (0.2 mM sodium sulfide), amount of change in fluorescence intensity F2−F1: 10 minutes after addition; for ΔF − ΔF0, difference in amount of change in fluorescence intensity in presence or absence of sodium sulfide: compound 5 μM in PBS pH 7.4, 0.2 mM vs 0 mM sodium sulfide; for Sensitivity: grade based on ΔF−ΔF0, A to C acceptable, D unacceptable
Description: The compound 1 was added to 1× phosphate-buffered saline (3 mL, pH 7.4) at a concentration of 5 μM. The fluorescence intensity of the solution was immediately measured with a fluorescence spectrophotometer F-4500 (manufactured by Hitachi High-Technologies Corporation). Sodium sulfide serving as a hydrogen sulfide donor was then added to the solution at 0.2 mM. After standing for 10 minutes, the fluorescence intensity of the solution was measured. The fluorescence intensity before the addition of sodium sulfide was denoted as F1, and the fluorescence intensity 10 minutes after the addition of sodium sulfide was denoted as F2. The amount of change in fluorescence intensity (ΔF) due to the addition of sodium sulfide was calculated using the formula F2−F1. The concentration of sodium sulfide was changed to 0 mM, and the amount of change in fluorescence intensity (ΔF0) of the solution was calculated in the same manner. The difference in the amount of change in fluorescence intensity (ΔF−ΔF0) in the presence or absence of sodium sulfide was calculated.
The evaluation is based on the following criteria in the exemplary embodiments of the present disclosure. A to C are acceptable levels, and D is an unacceptable level.

[2] = Behaviour of detection material in aqueous solution (precipitation, water solubility); assay type: physicochemical
Description: To detect hydrogen sulfide and metabolites in an aqueous specimen, such as a biological sample, the present inventors have examined whether the compound disclosed as a detection material in Non Patent Literature 1 can detect hydrogen sulfide in neutral phosphate-buffered saline.

## CN(C)c1ccc(/N=N/c2ccc(C(=O)NCCCOC(=O)/C(C#N)=C/c3ccccc3C(=O)Oc3ccc4c(c3)Oc3cc(O)ccc3C43OC(=O)c4ccccc43)cc2)cc1 (stereo not drawn) [Compound 1]
[1]
  ΔF0 (0 mM sodium sulfide), amount of change in fluorescence intensity: 1.1
  ΔF (0.2 mM sodium sulfide), amount of change in fluorescence intensity F2−F1: 42.8
  ΔF − ΔF0, difference in amount of change in fluorescence intensity in presence or absence of sodium sulfide: 41.7
  Sensitivity: A (ΔF−ΔF0 is 40 or more)

## COC(=O)/C(C#N)=C/c1ccccc1C(=O)Oc1ccc2c(c1)Oc1cc(OC)ccc1C21OC(=O)c2ccccc21 (stereo not drawn) [Compound 2, reference compound]
[1]
  ΔF0 (0 mM sodium sulfide), amount of change in fluorescence intensity: −0.4
  ΔF (0.2 mM sodium sulfide), amount of change in fluorescence intensity F2−F1: 11.4
  ΔF − ΔF0, difference in amount of change in fluorescence intensity in presence or absence of sodium sulfide: 11.8
  Sensitivity: D (ΔF−ΔF0 is less than 15)
[2]; neutral phosphate-buffered saline
  Precipitate or aggregate formation in solution: a precipitate or aggregate of the detection material is formed in the solution

## CN(C)c1ccc(/N=N/c2ccc(C(=O)NCCCOC(=O)/C(C#N)=C/c3ccccc3C(=O)Oc3ccc4c(c3)Oc3cc(O)ccc3C43OC(=O)c4cc(NC(=S)NCC(=O)O)ccc43)cc2)cc1 (stereo not drawn) [Compound 3]
[1]
  ΔF0 (0 mM sodium sulfide), amount of change in fluorescence intensity: 6.8
  ΔF (0.2 mM sodium sulfide), amount of change in fluorescence intensity F2−F1: 36.9
  ΔF − ΔF0, difference in amount of change in fluorescence intensity in presence or absence of sodium sulfide: 30.1
  Sensitivity: B (ΔF−ΔF0 is 25 or more and less than 40)

## CN(C)c1ccc(/N=N/c2ccc(C(=O)NCCCOC(=O)/C(C#N)=C/c3ccccc3C(=O)Oc3cc4c(cc3Cl)C3(OC(=O)c5ccccc53)c3cc(Cl)c(O)cc3O4)cc2)cc1 (stereo not drawn) [Compound 4]
[1]
  ΔF0 (0 mM sodium sulfide), amount of change in fluorescence intensity: 4.9
  ΔF (0.2 mM sodium sulfide), amount of change in fluorescence intensity F2−F1: 10.3
  ΔF − ΔF0, difference in amount of change in fluorescence intensity in presence or absence of sodium sulfide: 5.4
  Sensitivity: D (ΔF−ΔF0 is less than 15)

## COCCOCCOCCOCCNC(=S)Nc1ccc2c(c1)C(=O)OC21c2ccc(O)cc2Oc2cc(OC(=O)c3ccccc3/C=C(\C#N)C(=O)OCCCNC(=O)c3ccc(/N=N/c4ccc(N(C)C)cc4)cc3)ccc21 (stereo not drawn) [Compound 5]
[1]
  ΔF0 (0 mM sodium sulfide), amount of change in fluorescence intensity: 1.2
  ΔF (0.2 mM sodium sulfide), amount of change in fluorescence intensity F2−F1: 42.3
  ΔF − ΔF0, difference in amount of change in fluorescence intensity in presence or absence of sodium sulfide: 41.1
  Sensitivity: A (ΔF−ΔF0 is 40 or more)

## CN(C)c1ccc(/N=N/c2ccc(C(=O)NCCCOC(=O)/C(C#N)=C/c3ccccc3C(=O)Oc3cc4c(cc3F)C3(OC(=O)c5ccccc53)c3cc(F)c(O)cc3O4)cc2)cc1 (stereo not drawn) [Compound 6]
[1]
  ΔF0 (0 mM sodium sulfide), amount of change in fluorescence intensity: 13.3
  ΔF (0.2 mM sodium sulfide), amount of change in fluorescence intensity F2−F1: 34.0
  ΔF − ΔF0, difference in amount of change in fluorescence intensity in presence or absence of sodium sulfide: 20.7
  Sensitivity: C (ΔF−ΔF0 is 15 or more and less than 25)

## CN(C)c1ccc(/N=N/c2ccc(C(=O)NCCCOC(=O)/C(C#N)=C/c3ccccc3C(=O)Oc3ccc4c(c3)Oc3cc(O)ccc3C43OC(=O)c4c(Cl)c(Cl)c(Cl)c(Cl)c43)cc2)cc1 (stereo not drawn) [Compound 7]
[1]
  ΔF0 (0 mM sodium sulfide), amount of change in fluorescence intensity: 2.2
  ΔF (0.2 mM sodium sulfide), amount of change in fluorescence intensity F2−F1: 8.8
  ΔF − ΔF0, difference in amount of change in fluorescence intensity in presence or absence of sodium sulfide: 6.5
  Sensitivity: D (ΔF−ΔF0 is less than 15)

## O=C1OC2(c3ccc(O)cc3Oc3cc(O)ccc32)c2ccccc21 [fluorescein]
[2]; compared with o-methyl fluorescein
  Water solubility (comparison): higher water solubility than o-methyl fluorescein
